From patent publication US20240067632A1, “WEE1 Degrading Compounds and Uses Thereof” (Bristol-Myers Squibb Company, priority 2022, published 2024) come the findings set out here.

In one assay the test system is MKN45 cells. Briefly: MKN45 cell proliferation assay (Cell-Titer-Glo, 120 h). It counts as cell-based. Conditions: for pEC50: Homo sapiens, MKN-45, 120 h, Cell-Titer-Glo, read-out: MKN45 Cell Prolif. 120 hr (EC50); for MKN45 Cell Prolif. 120 hr (Ymin-Obs): minimal percent of DMSO control observed in the concentrations tested. In outline: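 Cells seeded at 400/well onto pre-printed 10-point half-log dilutions (top 1 or 10 uM, 0.1% DMSO final), in triplicate, and grown 120 h at 37 C. Viability by Cell-Titer-Glo luminescence, blank-subtracted and normalised to DMSO; EC50 from four-parameter logistic fit, with observed minimal % of control recorded as Ymin-obs.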

The next assay deals with T1, WEE1 (Homo sapiens, UniProt P30291+Q96SW2).
T1 construct: C-terminal ePL-tagged (DiscoverX, Fremont, CA) full-length WEE1 expression construct; expressed in transfected cells; host or cells: LentiX-HEK293T (Invitrogen), lentiviral transduction; co-expressing GSPT1-GN (G576N, lacking the first 158 amino acids)
Briefly: WEE1-ePL degradation assay (LentiX-WEE1-ePL-GSPT1-ND cells, InCELL Hunter luminescence, 4 h). Type of assay: cell-based. Conditions: 293T-LentiX WEE1-ePL cells; for DC50: read-out: 293T-LentiX WEE1-ePL Degradation 4 hr (EC50). In outline:
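Degradation EC50 was fitted by a four-parameter logistic model, with the upper limit taken from DMSO wells. Luminescence was read with InCELL Hunter reagent after 30 min at room temperature, following a 4 h, 37° C exposure of 2500 cells/well. Cells were LentiX-HEK293T carrying ePL-tagged full-length WEE1, dosed in 10 points (3-fold) from 1 or 10 uM.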

Where [1] appears, read: lower limit of the fit (Ymin=0 luciferase inhibitor, Ymax DMSO control).
[2] abbreviates: lower limit of the fit (0 = luciferase inhibitor, Ymax = DMSO control).

pEC50: −log10 of the molar value. Like-named read-outs stand apart in the source and are kept apart here.

For `COC[C@H]1CC[C@@H](c2ccc3cc(CN4CC[C@H](Oc5ccc6c(c5)CN(C5CCC(=O)NC5=O)C6=O)C4)ccc3n2)C1` (stereo partly drawn) [3-(5-{[(3S)-1-({2-[(1R,3S)-3-(methoxymethyl)cyclopentyl]quinolin-6-yl}methyl)pyrrolidin-3-yl]oxy}-1-oxo-2,3-dihydro-1H-isoindol-2-yl)piperidine-2,6-dione], in the assay with MKN45 cells, the negative logarithm of the EC50 (pEC50) is 8.51 and the “MKN45 Cell Prolif. 120 hr (Ymin-Obs)” value is given as 8.888. Further, the “293T-LentiX WEE1-ePL Degradation 4 hr (Ymin)” value on WEE1 (setting [1]) was 34.11. In addition, the DC50 at WEE1 was 3.12 nM.
In the same order, the values of `C[C@@H]1CN(Cc2ccc3nc([C@@H]4CCOC(C)(C)C4)ccc3c2)C[C@H]1Oc1ccc2c(c1)CN([C@H]1CCC(=O)NC1=O)C2=O` [(3S)-3-(5-{[(3S,4R)-1-({2-[(4R)-2,2-dimethyloxan-4-yl]quinolin-6-yl}methyl)-4-methylpyrrolidin-3-yl]oxy}-1-oxo-2,3-dihydro-1H-isoindol-2-yl)piperidine-2,6-dione] are 9.37, 8.113, 24.64 and 1.15 nM.
In the same order, the values of `CC(C)(O)c1cc(CN2CC[C@H](Oc3ccc4c(c3)CN([C@H]3CCC(=O)NC3=O)C4=O)C2)cc2ccc(C3CCOCC3)nc12` [(3S)-3-(5-{[(3S)-1-{[8-(2-hydroxypropan-2-yl)-2-(oxan-4-yl)quinolin-6-yl]methyl}pyrrolidin-3-yl]oxy}-1-oxo-2,3-dihydro-1H-isoindol-2-yl)piperidine-2,6-dione] are 6.78, 75.97, 53.75 and 6.72 nM.
Turning to `CN1CCN(c2ccc3cc(CN4CC[C@H](Oc5ccc6c(c5)CN(C5CCC(=O)NC5=O)C6=O)C4)ccc3n2)CC1` (stereo partly drawn) [3-(5-{[(3S)-1-{[2-(4-methylpiperazin-1-yl)quinolin-6-yl]methyl}pyrrolidin-3-yl]oxy}-1-oxo-2,3-dihydro-1H-isoindol-2-yl)piperidine-2,6-dione], the pEC50 in the assay on MKN45 cells (growth inhibition) was 7.70. The “MKN45 Cell Prolif. 120 hr (Ymin-Obs)” value in the assay with MKN45 cells is recorded as 13.365. Further, the “293T-LentiX WEE1-ePL Degradation 4 hr (Ymin)” value at WEE1 (setting [2]) worked out at 33.5. The DC50 on WEE1 turned out to be 6.77 nM.
In the case of `O=C1CCC(N2Cc3cc(O[C@H]4CCN(Cc5ccc6nc(N7CC[C@@]78CCOC8)ncc6c5)C4)ccc3C2=O)C(=O)N1` (stereo partly drawn) [3-(5-{[(3S)-1-({2-[(4S)-6-oxa-1-azaspiro[3.4]octan-1-yl]quinazolin-6-yl}methyl)pyrrolidin-3-yl]oxy}-1-oxo-2,3-dihydro-1H-isoindol-2-yl)piperidine-2,6-dione], the pEC50 in the assay on MKN45 cells (growth inhibition) is 7.88. Moreover, the “MKN45 Cell Prolif. 120 hr (Ymin-Obs)” value in the assay with MKN45 cells is 12.16. For the same molecule, the “293T-LentiX WEE1-ePL Degradation 4 hr (Ymin)” value at WEE1 (setting [2]) stood at 34.39. Besides, the DC50 on WEE1 was found to be 14.6 nM.
With `C[C@@H]1CN(Cc2ccc3nc(C4CCOCC4)ccc3c2)C[C@H]1Oc1ccc2c(c1)CN(C1CCC(=O)NC1=O)C2=O` (stereo partly drawn) [3-(5-{[(3S,4R)-4-methyl-1-{[2-(oxan-4-yl)quinolin-6-yl]methyl}pyrrolidin-3-yl]oxy}-1-oxo-2,3-dihydro-1H-isoindol-2-yl)piperidine-2,6-dione], the pEC50 with MKN45 cells (growth inhibition) is 8.45. Further, the “MKN45 Cell Prolif. 120 hr (Ymin-Obs)” value in the assay with MKN45 cells turned out to be 9.683. For the same molecule, on WEE1 (setting [2]), the “293T-LentiX WEE1-ePL Degradation 4 hr (Ymin)” value is 27.68. Moreover, on WEE1, the DC50 came out at 2.71 nM.
In the same order, the values of `O=C1CCC(N2Cc3cc(O[C@H]4CCN(Cc5cnc6ccccn56)C4)ccc3C2=O)C(=O)N1` (stereo partly drawn) [3-(5-{[(3S)-1-({imidazo[1,2-a]pyridin-3-yl}methyl)pyrrolidin-3-yl]oxy}-1-oxo-2,3-dihydro-1H-isoindol-2-yl)piperidine-2,6-dione] are 6.03, 21.75, 33.52 and 150 nM.
In the same order, the values of `O=C1CCC(N2Cc3cc(O[C@H]4CCN(Cc5ccc6nc(N7CCC[C@@]78CCOC8)ncc6c5)C4)ccc3C2=O)C(=O)N1` (stereo partly drawn) [3-(5-{[(3S)-1-({2-[(5S)-7-oxa-1-azaspiro[4.4]nonan-1-yl]quinazolin-6-yl}methyl)pyrrolidin-3-yl]oxy}-1-oxo-2,3-dihydro-1H-isoindol-2-yl)piperidine-2,6-dione] are 8.03, 9.64, 34.08 and 12.6 nM.
In the same order, the values of `COc1ccc2cc(CN3CC[C@H](Oc4ccc5c(c4)CN(C4CCC(=O)NC4=O)C5=O)C3)nnc2c1` (stereo partly drawn) [3-(5-{[(3S)-1-[(7-methoxycinnolin-3-yl)methyl]pyrrolidin-3-yl]oxy}-1-oxo-2,3-dihydro-1H-isoindol-2-yl)piperidine-2,6-dione] are 7.91, 7.52, 28 and 5.48 nM.
As to `O=C1CCC(N2Cc3cc(O[C@H]4CCN(Cc5cc6ccccc6nc5C(F)(F)F)C4)ccc3C2=O)C(=O)N1` (stereo partly drawn) [3-(1-oxo-5-{[(3S)-1-{[2-(trifluoromethyl)quinolin-3-yl]methyl}pyrrolidin-3-yl]oxy}-2,3-dihydro-1H-isoindol-2-yl)piperidine-2,6-dione], the pEC50 in the assay on MKN45 cells (growth inhibition) is 6.59. Also, the “MKN45 Cell Prolif. 120 hr (Ymin-Obs)” value in the assay on MKN45 cells turned out to be 73.03. In addition, the “293T-LentiX WEE1-ePL Degradation 4 hr (Ymin)” value on WEE1 (setting [2]) was 39.87. Moreover, at WEE1, the DC50 turned out to be 29.3 nM.
In the same order, the values of `O=C1CCC(N2Cc3cc(O[C@H]4CCN(Cc5ccc6ncc(C(F)F)cc6c5)C4)ccc3C2=O)C(=O)N1` (stereo partly drawn) [3-(5-{[(3S)-1-{[3-(difluoromethyl)quinolin-6-yl]methyl}pyrrolidin-3-yl]oxy}-1-oxo-2,3-dihydro-1H-isoindol-2-yl)piperidine-2,6-dione] are 7.84, 11.04, 33 and 3.38 nM.
In the same order, the values of `NC(=O)c1ccc2cc(CN3CC[C@H](Oc4ccc5c(c4)CN(C4CCC(=O)NC4=O)C5=O)C3)ccc2n1` (stereo partly drawn) [6-{[(3S)-3-{[2-(2,6-dioxopiperidin-3-yl)-1-oxo-2,3-dihydro-1H-isoindol-5-yl]oxy}pyrrolidin-1-yl]methyl}quinoline-2-carboxamide] are 7.77, 10.71, 26.545 and 3.53 nM.
Take `N#Cc1ccc2cc(CN3CC[C@H](Oc4cc(F)c5c(c4)CN(C4CCC(=O)NC4=O)C5=O)C3)ccc2n1` (stereo partly drawn) [6-{[(3S)-3-{[2-(2,6-dioxopiperidin-3-yl)-7-fluoro-1-oxo-2,3-dihydro-1H-isoindol-5-yl]oxy}pyrrolidin-1-yl]methyl}quinoline-2-carbonitrile]: in the assay with MKN45 cells (growth inhibition), the negative-log EC50 (pEC50) is below 5.00. The “MKN45 Cell Prolif. 120 hr (Ymin-Obs)” value in the assay with MKN45 cells is reported as 84.865. In addition, the “293T-LentiX WEE1-ePL Degradation 4 hr (Ymin)” value at WEE1 (setting [2]) worked out at 100.5.
For the molecule `Cn1ncc2cc(CN3CC[C@H](Oc4ccc5c(c4)CN(C4CCC(=O)NC4=O)C5=O)C3)ccc21` (stereo partly drawn) [3-(5-{[(3S)-1-[(1-methyl-1H-indazol-5-yl)methyl]pyrrolidin-3-yl]oxy}-1-oxo-2,3-dihydro-1H-isoindol-2-yl)piperidine-2,6-dione], the negative-log EC50 (pEC50) in the assay on MKN45 cells (growth inhibition) was below 5.00. Further, the “MKN45 Cell Prolif. 120 hr (Ymin-Obs)” value in the assay on MKN45 cells was 86.69. Besides, on WEE1 (setting [2]), the “293T-LentiX WEE1-ePL Degradation 4 hr (Ymin)” value is on record as 61. Besides, the DC50 at WEE1 was 68.8 nM.
As to `C[C@@H]1CC(c2ccc3cc(CN4CC[C@H](Oc5ccc6c(c5)CN(C5CCC(=O)NC5=O)C6=O)C4)ccc3n2)C[C@@H](C)O1` (stereo partly drawn) [3-(5-{[(3S)-1-({2-[(2R,6R)-2,6-dimethyloxan-4-yl]quinolin-6-yl}methyl)pyrrolidin-3-yl]oxy}-1-oxo-2,3-dihydro-1H-isoindol-2-yl)piperidine-2,6-dione], in the assay on MKN45 cells, the pEC50 is 8.29 and the “MKN45 Cell Prolif. 120 hr (Ymin-Obs)” value is given as 10.09. The “293T-LentiX WEE1-ePL Degradation 4 hr (Ymin)” value on WEE1 (setting [1]) worked out at 25.33. The DC50 at WEE1 is 5.2 nM.
`O=C1CCC(N2Cc3cc(O[C@H]4CCN(Cc5ccc6nc(C(F)F)ccc6c5)C4)ccc3C2=O)C(=O)N1` (stereo partly drawn) [3-(5-{[(3S)-1-{[2-(difluoromethyl)quinolin-6-yl]methyl}pyrrolidin-3-yl]oxy}-1-oxo-2,3-dihydro-1H-isoindol-2-yl)piperidine-2,6-dione]: in the assay with MKN45 cells (growth inhibition), the negative-log EC50 (pEC50) is 8.14. In addition, the “MKN45 Cell Prolif. 120 hr (Ymin-Obs)” value with MKN45 cells is recorded as 9.875. Moreover, on WEE1 (setting [2]), the “293T-LentiX WEE1-ePL Degradation 4 hr (Ymin)” value came to 29.42. The DC50 at WEE1 was 2.96 nM.
In the case of `O=C1CCC(N2Cc3cc(O[C@H]4CCN(Cc5ccc6cnncc6c5)C4)ccc3C2=O)C(=O)N1` (stereo partly drawn) [3-(1-oxo-5-{[(3S)-1-[(phthalazin-6-yl)methyl]pyrrolidin-3-yl]oxy}-2,3-dihydro-1H-isoindol-2-yl)piperidine-2,6-dione], in the assay with MKN45 cells (growth inhibition), the pEC50 was 6.05. For the same molecule, in the assay with MKN45 cells, the “MKN45 Cell Prolif. 120 hr (Ymin-Obs)” value is listed as 16.7. Also, the “293T-LentiX WEE1-ePL Degradation 4 hr (Ymin)” value on WEE1 (setting [2]) was 38. Further, the DC50 at WEE1 was determined as 148 nM.
